Assays:
Format in all cases: in vivo
[1] = system: rat; assay: Cataleptic effects in rat, procedure based on Tedeschi et al.; conditions: for cataleptic effect (NSE = no significant cataleptic effect in doses up to indicated amount): rat, fumarate salts, expressed as free base
Source text: (§1) The procedure used for determining cataleptic effects of the fumarate salts was based on that of Tedeschi et al., Arch. Int. Pharmacodyn.

[2] = system: dog; assay: Anti-emetic activity in dogs, modified anti-apomorphine method; conditions: fumarate salts; for ED50: Canis lupus familiaris, sc, expressed as free base, read-out: ED50 (95% Confidence Limits), anti-apomorphine
Protocol: The anti-emetic properties of the fumarate salts were established in dogs using a modification of the anti-apomorphine methods of Chen and Ensor, J. Pharmac. Exp. Ther. 98, 245-250 (1950) and of Leonard et al., J. Pharmac. Exp. Ther. 154, 339-345 (1966) and the ED50 was calculated by the method of Goldstein (Biostatistics, An Introductory Text, pg. 156-161, The MacMillan Co., N. Y., 1964).

[3] = Cataleptic effects in rat, procedure based on Tedeschi et al.; conditions: in vivo; rat, IP; fumarate salts, expressed as free base; read-out: ED50, cataleptic effect
Source text: as §1

Structure (SMILES): CN(C(=O)c1ccc(N)cc1)C1CCN(C2CCCCC2)C1 (racemic) [± racemate, 4-amino-N-(1-cyclohexyl-3-pyrrolidinyl)-N-methylbenzamide]
- cataleptic properties ([1]; general statement): notable absence of cataleptic properties
- cataleptic effect (NSE = no significant cataleptic effect in doses up to indicated amount) ([1]; IP): NSE to 100
- cataleptic effect (NSE = no significant cataleptic effect in doses up to indicated amount) ([1]; PO): NSE to 200
- ED50 [2]: 0.25 mg/kg

Structure (SMILES): CN(C(=O)c1ccc(N)cc1)C1CCN(C2CCCCC2)C1 (single isomer, unassigned; (+)) [(+)-isomer, (+)-4-amino-N-(1-cyclohexyl-3-pyrrolidinyl)-N-methylbenzamide]
- cataleptic effect (NSE = no significant cataleptic effect in doses up to indicated amount) ([1]; IP): NSE to 100
- cataleptic effect (NSE = no significant cataleptic effect in doses up to indicated amount) ([1]; PO): NSE to 200
- anti-apomorphine activity (words in the ED50 column) ([2]; s.c.): no significant

Structure (SMILES): CN(C(=O)c1ccc(N)cc1)C1CCN(C2CCCCC2)C1 (single isomer, unassigned; (-)) [(-)-isomer, (-)-4-amino-N-(1-cyclohexyl-3-pyrrolidinyl)-N-methylbenzamide]
- ED50 [3]: > 100 mg/kg
- ED50 [2]: 0.09 mg/kg

Source: patent publication US4282243A, “Optical isomers of 4-amino-N-(1-cyclohexyl-3-pyrrolidinyl)-N-methylbenzamide” (A. H. Robins Company, Inc., priority 1980, dated 1981)
